Measurements published in EP0013144A1, “Substituted diphenylamine derivatives, compositions and herbicidal uses thereof, and processes for their preparation” (ICI AUSTRALIA LIMITED, priority 1978, dated 1980).

Experiments:
Type in all cases: in vivo
Wheat [1] = assay: Pre-emergence herbicidal activity (Example 31); parameters: key: 0-3 scale: 0 = 0-25% damage, 3 = 75-99% kill, 3+ = 100% kill; details: after three weeks
Experimental: (§1) Concentrated formulations of the compounds of the invention were prepared by: • a) in the case of oils and waxy solids, dissolving the compound in toluene containing 7% v/v "Teric" N13 ("Teric" is a Trade MarK and "Teric" N13, a product of ethoxylation of nonylphenol, is available from ICI Australia Limited) and 3% v/v "Kemmat" SC15B ("Kemmat" is a Trade Mark and "Kemmat" SC15B is a formulation of calcium dodecylbenzene sulfonate); or • b) in the case of crystalline solids, adding 5 parts by weight of the compound and 1 part by weight of . ''Dyapol" PT ("Dyapol" is a Trade Mark and "Dyapol" PT is an anionic suspending agent) to 94 parts by weight of an aqueous solution containing 0.25% v/v of "Teric" N8 (a product of ethoxylation of nonylphenol) and ball-milling the mixture to produce a stable suspension. The emulsifiable concentrates and suspensions were then diluted with water to give an aqueous composition of the required concentration suitable for use in the evaluation of the pre-emergence and post-emergence herbicidal activity of the compounds of the invention.
(§2) The pre-emergent herbicidal activity of the compounds of the invention formulated as described in Example 30 was assessed by the following procedure.
(§3) The seeds of the test species were sown in rows 2 cm deep in soil contained in seed boxes. The monocotyledonous plants and the dicotyledonous plants were sprayed with the required quantity of a composition of the invention. Two duplicate seed Doxes were prepared in the same manner but were not sprayed with a composition of the invention and were used for comparison purposes. All the boxes were placed in a glasshouse, lightly watered with an overhead spray to initiate germination and then sub-irrigated as required for optimum plant growth. After three weeks the boxes were removed from the glasshouse and the effect of the treatment was visually assessed. The results are presented in Table 3 where the damage to plants is rated on a scale of from 0 to 3 where 0 represents from 0 to 25% damage, 3 represents 75 to 99% kill and 3+ represents 100% kill.
(§4) A dash (-) means that no experiment was carried out.

Ryegrass [2] = assay: Pre-emergence herbicidal activity (Example 31); parameters: key: 0-3 scale: 0 = 0-25% damage, 3 = 75-99% kill, 3+ = 100% kill; details: after three weeks
Experimental: as §1, §2, §3, §4

Mustard [3] = assay: Pre-emergence herbicidal activity (Example 31); details: after three weeks
Experimental: as §1, §2, §3, §4

Sunflower [4] = assay: Pre-emergence herbicidal activity (Example 31); details: after three weeks
Experimental: as §1, §2, §3, §4

Japanese millet [5] = assay: Pre-emergence herbicidal activity (Example 31); details: after three weeks
Experimental: as §1, §2, §3, §4

Ipomea [6] = assay: Pre-emergence herbicidal activity (Example 31); details: after three weeks
Experimental: as §1, §2, §3, §4

Mustard [7] = assay: Post-emergence herbicidal activity (Example 32); details: 3 weeks after spraying
Experimental: as §1
(§5) The post-emergent herbicidal activity of the compounds of the invention formulated as described in Example 30 was assessed by the following procedure.
(§6) The seeds of the test species were sown in rows 2 cm deep in soil contained in seed boxes. The monocotyledonous plants and the dicotyledonous plants were sown in separate seed boxes in duplicate. The four seed boxes were placed in a glasshouse, lightly watered with an overhead spray to initiate germination and then sub-irrigated as required for optimum plant growth. After the plants had grown to a height of about 10 to 12.5 cm one box of each of the monocotyledonous plants and the dicotyledonous plants was removed from the glasshouse and sprayed with the required quantity of a composition of the invention. After spraying the boxes were returned to the glasshouse for further 3 weeks and the effects of the treatment was visually assessed by comparison with the untreated controls. The results are presented in Table 4 where the damage to plants is rated on a scale of from 0 to 3 where 0 represents 0 to 25% damage, 3 represents 75 to 99% kill and 3+ represents 100% kill. A dash (-) means that no experiment was carried out.

Wild Oats [8] = assay: Post-emergence herbicidal activity (Example 32); details: 3 weeks after spraying
Experimental: as §1, §5, §6

Ryegrass [9] = assay: Post-emergence herbicidal activity (Example 32); details: 3 weeks after spraying
Experimental: as §1, §5, §6

Sunflower [10] = assay: Post-emergence herbicidal activity (Example 32); details: 3 weeks after spraying
Experimental: as §1, §5, §6

Japanese millet [11] = assay: Post-emergence herbicidal activity (Example 32); details: 3 weeks after spraying
Experimental: as §1, §5, §6

Ipomea [12] = assay: Post-emergence herbicidal activity (Example 32); details: 3 weeks after spraying
Experimental: as §1, §5, §6

Wheat [13] = assay: Post-emergence herbicidal activity (Example 32); parameters: key: 0-3 scale: 0 = 0-25% damage, 3 = 75-99% kill, 3+ = 100% kill; details: 3 weeks after spraying
Experimental: as §1, §5, §6

Wild Oats [14] = assay: Pre-emergence herbicidal activity (Example 31); details: 5 kg/ha, after three weeks
Experimental: as §1, §2, §3, §4

Structure (SMILES)	damage to plants, Wh (Wheat [1]; 1 kg/ha)	damage to plants, Wh (Wheat [1]; 5 kg/ha)	damage to plants, Rg (Ryegrass [2]; 1 kg/ha)	damage to plants, Rg (Ryegrass [2]; 5 kg/ha)	damage to plants, Ms (Mustard [3]; 1 kg/ha)	damage to plants, Ms (Mustard [3]; 5 kg/ha)	damage to plants, Sf (Sunflower [4]; 5 kg/ha)	damage to plants, Ip (Ipomea [6]; 5 kg/ha)	damage to plants, Ms (Mustard [7]; 1 kg/ha)	damage to plants, Ms (Mustard [7]; 5 kg/ha)	damage to plants, Ot (Wild Oats [8]; 1 kg/ha)	damage to plants, Ot (Wild Oats [8]; 5 kg/ha)	damage to plants, Rg (Ryegrass [9]; 1 kg/ha)	damage to plants, Rg (Ryegrass [9]; 5 kg/ha)	damage to plants, Sf (Sunflower [10]; 5 kg/ha)	damage to plants, Jm (Japanese millet [11]; 1 kg/ha)	damage to plants, Jm (Japanese millet [11]; 5 kg/ha)	damage to plants, Ip (Ipomea [12]; 5 kg/ha)	damage to plants, Wh (Wheat [13]; 1 kg/ha)	damage to plants, Wh (Wheat [13]; 5 kg/ha)	also measured
COC(=O)C(C)Oc1ccc(Nc2ccccc2[N+](=O)[O-])cc1 (stereo not shown) [Compound 25]																					damage to plants, Wh (Wheat [1]; 10 kg/ha): 1; damage to plants, Rg (Ryegrass [2]; 10 kg/ha): 3+ (3+ represents 100% kill); damage to plants, Ms (Mustard [3]; 10 kg/ha): 0 (0 represents from 0 to 25% damage); damage to plants, Sf (Sunflower [4]; 10 kg/ha): 0 (0 represents from 0 to 25% damage); damage to plants, Jm (Japanese millet [5]; 10 kg/ha): 3 (3 represents 75 to 99% kill); damage to plants, Ip (Ipomea [6]; 10 kg/ha): 0 (0 represents from 0 to 25% damage); damage to plants, Ms (Mustard [7]; 10 kg/ha): 0 (0 represents 0 to 25% damage); damage to plants, Ot (Wild Oats [8]; 10 kg/ha): 3 (3 represents 75 to 99% kill); damage to plants, Rg (Ryegrass [9]; 10 kg/ha): 3+ (3+ represents 100% kill); damage to plants, Sf (Sunflower [10]; 10 kg/ha): 0 (0 represents 0 to 25% damage); damage to plants, Jm (Japanese millet [11]; 10 kg/ha): 3+ (3+ represents 100% kill); damage to plants, Ip (Ipomea [12]; 10 kg/ha): 0 (0 represents 0 to 25% damage); damage to plants, Wh (Wheat [13]; 10 kg/ha): 3 (3 represents 75 to 99% kill)
CC(Oc1ccc(Nc2ccc(Cl)cc2[N+](=O)[O-])cc1)C(=O)OC1CCCCC1 (stereo not shown) [Compound 79]	0 (0 represents from 0 to 25% damage)	0 (0 represents from 0 to 25% damage)	3 (3 represents 75 to 99% kill)	3 (3 represents 75 to 99% kill)	0 (0 represents from 0 to 25% damage)	0 (0 represents from 0 to 25% damage)	0 (0 represents from 0 to 25% damage)	0 (0 represents from 0 to 25% damage)	0 (0 represents 0 to 25% damage)	0 (0 represents 0 to 25% damage)	3 (3 represents 75 to 99% kill)	3 (3 represents 75 to 99% kill)	3+ (3+ represents 100% kill)	3 (3 represents 75 to 99% kill)	0 (0 represents 0 to 25% damage)	3+ (3+ represents 100% kill)	3+ (3+ represents 100% kill)	0 (0 represents 0 to 25% damage)	2	3 (3 represents 75 to 99% kill)	damage to plants, Sf (Sunflower [4]; 1 kg/ha): 0 (0 represents from 0 to 25% damage); damage to plants, Jm (Japanese millet [5]; 1 kg/ha): 3 (3 represents 75 to 99% kill); damage to plants, Jm (Japanese millet [5]; 5 kg/ha): 3+ (3+ represents 100% kill); damage to plants, Ip (Ipomea [6]; 1 kg/ha): 0 (0 represents from 0 to 25% damage); damage to plants, Sf (Sunflower [10]; 1 kg/ha): 0 (0 represents 0 to 25% damage); damage to plants, Ip (Ipomea [12]; 1 kg/ha): 0 (0 represents 0 to 25% damage)
COC(=O)C(C)Oc1ccc(Nc2ccc(C)cc2[N+](=O)[O-])cc1 (stereo not shown) [Compound 26]	0 (0 represents from 0 to 25% damage)	1	2	3+ (3+ represents 100% kill)	0 (0 represents from 0 to 25% damage)	0 (0 represents from 0 to 25% damage)	0 (0 represents from 0 to 25% damage)	0 (0 represents from 0 to 25% damage)	0 (0 represents 0 to 25% damage)	0 (0 represents 0 to 25% damage)	1	1	3 (3 represents 75 to 99% kill)	3 (3 represents 75 to 99% kill)	0 (0 represents 0 to 25% damage)	3 (3 represents 75 to 99% kill)	3+ (3+ represents 100% kill)	0 (0 represents 0 to 25% damage)	2	3 (3 represents 75 to 99% kill)	damage to plants, Sf (Sunflower [4]; 1 kg/ha): 0 (0 represents from 0 to 25% damage); damage to plants, Ip (Ipomea [6]; 1 kg/ha): 0 (0 represents from 0 to 25% damage); damage to plants, Sf (Sunflower [10]; 1 kg/ha): 0 (0 represents 0 to 25% damage); damage to plants, Ip (Ipomea [12]; 1 kg/ha): 0 (0 represents 0 to 25% damage)
COC(=O)C(C)Oc1ccc(Nc2ccc(Cl)cc2Cl)cc1 (stereo not shown) [Compound 22]		0 (0 represents from 0 to 25% damage)		2		0 (0 represents from 0 to 25% damage)	0 (0 represents from 0 to 25% damage)	0 (0 represents from 0 to 25% damage)	1	3+ (3+ represents 100% kill)	2	3+ (3+ represents 100% kill)	3+ (3+ represents 100% kill)	3+ (3+ represents 100% kill)		3+ (3+ represents 100% kill)	3+ (3+ represents 100% kill)		1	3 (3 represents 75 to 99% kill)	damage to plants, Ot (Wild Oats [14]): 0 (0 represents from 0 to 25% damage); damage to plants, Jm (Japanese millet [5]; 5 kg/ha): 2
COC(=O)C(C)Oc1ccc(Nc2ccc(Br)cc2N)cc1 (stereo not shown) [Compound 32, Methyl 2-[4-(2-amino-4-bromoanilino)phenoxy] propionate]		1		2		0 (0 represents from 0 to 25% damage)	0 (0 represents from 0 to 25% damage)	0 (0 represents from 0 to 25% damage)													damage to plants, Ot (Wild Oats [14]): 0 (0 represents from 0 to 25% damage); damage to plants, Jm (Japanese millet [5]; 5 kg/ha): 3 (3 represents 75 to 99% kill)
COC(=O)C(C)Oc1ccc(N(C)c2ccc(C(F)(F)F)cc2)cc1 (stereo not shown) [Compound 14, Methyl 2-[4-(4-trifluoromethyl-N-methylanilino)phenoxy]-propionate]										3+ (3+ represents 100% kill)		0 (0 represents 0 to 25% damage)		0 (0 represents 0 to 25% damage)	2		3 (3 represents 75 to 99% kill)	3+ (3+ represents 100% kill)		0 (0 represents 0 to 25% damage)	
CC(Oc1ccc(N(C)c2ccc(C(F)(F)F)cc2[N+](=O)[O-])cc1)C(=O)OC1CCCCC1 (stereo not shown) [Compound 80]	0 (0 represents from 0 to 25% damage)	1	3 (3 represents 75 to 99% kill)	3+ (3+ represents 100% kill)	0 (0 represents from 0 to 25% damage)	0 (0 represents from 0 to 25% damage)	0 (0 represents from 0 to 25% damage)	0 (0 represents from 0 to 25% damage)	0 (0 represents 0 to 25% damage)	0 (0 represents 0 to 25% damage)	3+ (3+ represents 100% kill)	3+ (3+ represents 100% kill)	3 (3 represents 75 to 99% kill)	3+ (3+ represents 100% kill)	0 (0 represents 0 to 25% damage)	3+ (3+ represents 100% kill)	3+ (3+ represents 100% kill)	0 (0 represents 0 to 25% damage)	1	3 (3 represents 75 to 99% kill)	damage to plants, Sf (Sunflower [4]; 1 kg/ha): 0 (0 represents from 0 to 25% damage); damage to plants, Ip (Ipomea [6]; 1 kg/ha): 0 (0 represents from 0 to 25% damage); damage to plants, Sf (Sunflower [10]; 1 kg/ha): 0 (0 represents 0 to 25% damage); damage to plants, Ip (Ipomea [12]; 1 kg/ha): 0 (0 represents 0 to 25% damage)
